In patent US20120088247A1, “MATERIALS AND METHODS FOR TREATING PATIENTS WITH TAXOXIFEN” (Indian University Research & Technology Corporatio, priority 2009, published 2012):
Blank lines part the entries; values can stand above or below the compound they belong to.

Columns and labels:
[1] = Plasma concentrations of tamoxifen and its metabolites (HPLC) in women with breast cancer taking tamoxifen, by UGT2B7 genotype and CYP2D6 score
Text: Patients. […] Subjects for the registry were recruited from the Breast Oncology Program at the University of Michigan Comprehensive Cancer Center and the Indiana University Cancer Center. […] Patients were enrolled after they had completed all primary surgery, radiation, and adjuvant chemotherapy. Specimens and data from this registry has been sed for several other studies, as reported previously,[16],[6],[17].
Study design. […] At the indicated time points, medical histories, including a comprehensive list of current medications, were obtained, and blood samples (5 mL) were drawn. […] Blood was collected in heparin tubes, and plasma was separated within 1 hour of blood collection by centrifugation at 2060×g. All samples (plasma and whole blood) were transferred to cryogenic vials (Corning, Cambridge, Mass.), shipped to the laboratory of the Division of Clinical Pharmacology, Indiana University, on dry ice, and stored at −80° C. until analysis.
UGT 2B7 genotyping. Genomic deoxyribonucleic acid (DNA) was extracted from the leukocyte portion of whole blood by use of a QJAamp DNA Blood Mini Kit (Qiagen, Valencia, Calif.) and used for genotyping of UGT2B7 variants. UGT2B7 codon 268 genotypes were determined by real-time PCR assays using the TaqMan Drug Metabolism Genotyping Assay C—32449742—20 (Applied Biosystems, Foster City, Calif.) in the ABI 7900HT sequence detection system equipped with an autoloader in the Functional Genomics Core Facility at the Penn State College of Medicine. […] The same primers were used for both PCR and sequencing: sense, 5′-[…]-3′ (SEQ ID. No. 3), located +642-+670 from the UGT2B7 translation start site); and antisense, 5′-[…]-3′ (SEQ. ID. No. 4), located +1555-+1597 from the UGT2B7 translation start site.
CYP2D6 genotyping. Genomic DNA was extracted from whole blood. CYP2D6 genotyping was conducted using two different genotyping methods: The AmpliChip CYP450 Test (Roche Diagnostics, Indianapolis, Ind.) and the Luminex CYP450C CYP2D6 assay (TM Biosciences). The AmpliChip was used for 129 of the DNA samples. It tests for 33 CYP2D6 alleles (ie, *1 to *10AB, *11, *14A, *14B, *15, *17, *19, *20, *25, *26, *29 to *31, *35, *36, *40, *41, *1N, *2xN, *4xN, *10xN, *17xN, *35xN, and *41xN). The remaining 60 samples were genotyped using the Luminex CYP450 Test. It tests for 16 CYP2D6 alleles (ie, *2 through *12, *14, *15, *17, and *41). The genotypes of approximately 10-20% of the samples were confirmed by running both assays or by using independent Taqman or restriction fragment length polymorphism (RFLP) assays.
CYP2D6 Gene Score. The CYP2D6 alleles were assigned a value that reflects the expected relative activity of the CYP2D6 enzyme for which they code. Accordingly, fully functional CYP2D6 alleles (e.g. *1, *2, *33, *35) were assigned a score of 1. CYP2D6 alleles associated with reduced enzyme activity (e.g. *9,*10, *17, *29, *37, *41, *45, *46) were scored as 0.5.
CYP2D6 Inhibition Factor and CYP2D6 Activity Score. After calculating the expected activity of the CYP2D6 enzyme according to the genotype, the possible effects of known CYP2D6 inhibitors on the performance of the CYP2D6 protein were incorporated. […] This rule defines the CYP2D6 inhibition factor. The CYP2D6 Activity Score is expressed as the product of multiplying the CYP2D6 Gene Score by the Inhibitor factor, which is defined in the following equation: activity score=(gene score×inhibition factor),
In presenting CYP2D6 activity score data, an extensive metabolizer (EM) was defined as an individual with an activity score greater than 2; a poor metabolizer (PM) was defined with an activity score less than 1; and an intermediate metabolizer (IM) as an individual who has a score between 1 and 2.

[2] = literature refs [18],[19]; cited from earlier work

- Association of plasma concentration with UGT2B7 genotype ([1]; FIG. 1, P<0.05 considered significant): not significantly associated
- Mean plasma concentration, percent larger in the *2/*2 group ([1]; UGT2B7 *2/*2 group (FIG. 1A, 1D)): 42%
SMILES: CC/C(=C(\c1ccccc1)c1ccc(OCCNC)cc1)c1ccccc1 [N-desmethyl-tamoxifen]

- Increase in concentration due to gene-gene interaction ([1]; female, human, in vivo): 220%
- Increase in endoxifen concentration ([1]; female, human, in vivo): 58%
- Mean plasma endoxifen concentration, percent higher in UGT2B7*2/*2 group than in each of *1/*2 and *1/*1 groups ([1]; female, human, in vivo): 34%
- Range of mean plasma endoxifen concentration by compound UGT2B7 genotype and CYP2D6 score ([1]; female, human, in vivo): 12 to 100 nM
- Range of mean plasma endoxifen concentration over combined UGT2B7 genotype and CYP2D6 score groups ([1]; female, human, in vivo): 19 to 107 nM
- Association of plasma concentration with UGT2B7 genotype ([1]; in vivo): significant
SMILES: CC/C(=C(\c1ccc(O)cc1)c1ccc(OCCNC)cc1)c1ccccc1 [endoxifen, 4-hydroxy-N-desmethyl-tamoxifen]

SMILES: CC/C(=C(\c1ccccc1)c1ccc(OCCN(C)C)cc1)c1ccccc1 [tamoxifen, Tamoxifen]
- half-life [2]: 120 to 170 h
